Data reported in PubChem BioAssay (NCI).
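Growth conditions: 96-well plates. Treatment: test compound, 48 hours, 5 concentrations. Analysis: linear interpolation between bracketing concentrations; unreached endpoints set to highest concentration. GI50: concentration for 50% inhibition of growth. TGI marks complete inhibition of growth.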

Assays:
Assay in all cases: DTP human tumour cell line panel, 48 h
[1] = tested on: OVCAR-5 ovarian
[2] = tested on: MOLT-4 leukemia
[3] = tested on: SK-MEL-28 melanoma
[4] = tested on: HCT-116 colon
[5] = tested on: SF-268 CNS
[6] = tested on: SN12C renal
[7] = tested on: UACC-257 melanoma
[8] = tested on: MDA-MB-468 breast
[9] = tested on: MALME-3M melanoma
[10] = tested on: SK-OV-3 ovarian
[11] = tested on: NCI-H23 lung
[12] = tested on: U251 CNS
[13] = tested on: SK-MEL-5 melanoma
[14] = tested on: ACHN renal
[15] = tested on: IGROV1 ovarian
[16] = tested on: HS 578T breast
[17] = tested on: SK-MEL-2 melanoma
[18] = tested on: SNB-75 CNS
[19] = tested on: KM12 colon
[20] = tested on: MDA-MB-231 breast
[21] = tested on: RPMI-8226 leukemia
[22] = tested on: HOP-92 NSCLC
[23] = tested on: SNB-19 CNS
[24] = tested on: UACC-62 melanoma
[25] = tested on: PC-3 prostate
[26] = tested on: T-47D breast
[27] = tested on: OVCAR-4 ovarian
[28] = tested on: K-562 leukemia
[29] = tested on: RXF 393 renal

O=C(N=Nc1c(O)[nH]c2ccc(Br)cc12)c1ccc2nc(-c3ccccc3)[nH]c2c1
GI50 [1]: 3.72 µM
TGI [1]: 27.1 µM
GI50 [2]: 1.34 µM
TGI [2]: 4.01 µM
GI50 [3]: 1.79 µM
TGI [3]: 3.42 µM
GI50 [4]: 3.24 µM
TGI [4]: 12.8 µM
GI50 [5]: 2 µM
TGI [5]: 4.6 µM
GI50 [6]: 1.86 µM
TGI [6]: 4.11 µM
GI50 [7]: 3.27 µM
TGI [7]: 21.7 µM
GI50 [8]: 1.61 µM
TGI [8]: 3.06 µM
GI50 [9]: 1.62 µM
TGI [9]: 3.35 µM
GI50 [10]: 1.97 µM
TGI [10]: 4.29 µM
GI50 [11]: 1.53 µM
TGI [11]: 3.65 µM
GI50 [12]: 0.418 µM
TGI [12]: 1.59 µM
GI50 [13]: 3.38 µM
TGI [13]: 12.1 µM
GI50 [14]: 8.96 µM
TGI [14]: > 100 µM
GI50 [15]: 3.03 µM
TGI [15]: 13.2 µM
GI50 [16]: 1.86 µM
TGI [16]: 4.83 µM
GI50 [17]: 2.17 µM
TGI [17]: 4.78 µM
GI50 [18]: 2.11 µM
TGI [18]: 5.62 µM
GI50 [19]: 22 µM
TGI [19]: > 100 µM
GI50 [20]: 1.69 µM
TGI [20]: 3.18 µM
GI50 [21]: 17.2 µM
TGI [21]: > 100 µM
GI50 [22]: 2.17 µM
TGI [22]: 6.63 µM
GI50 [23]: 1.79 µM
TGI [23]: 4.35 µM
GI50 [24]: 1.75 µM
TGI [24]: 3.37 µM
GI50 [25]: 2.92 µM
TGI [25]: > 100 µM
GI50 [26]: 1.07 µM
TGI [26]: 2.52 µM
GI50 [27]: 1.99 µM
TGI [27]: 4.26 µM
GI50 [28]: 1.29 µM
TGI [28]: 6.99 µM
GI50 [29]: 2.57 µM
TGI [29]: 6.6 µM
